{"source": "ChEMBL document CHEMBL6078624", "about": "“Structure-based discovery of a 4,5-Dihydropyrazole-cored PET ligand for imaging of receptor-interacting serine/threonine-protein kinase 1 (RIPK1) in the brain” (Eur J Med Chem, 2024)", "key": {"[1]": {"assay": "Biodistribution in male ICR mouse blood at 0.74 MBq, iv administered into tail vein pre-treated with GSK'547 followed by compound addition by automatic gamma counter analysis relative to baseline", "format": "ADME, organism-based", "conditions": "in vivo; call rule not given here"}, "[2]": {"assay": "Biodistribution in male ICR mouse blood at 0.74 MBq, iv administered into tail vein pre-treated with WL8 followed by compound addition by automatic gamma counter analysis relative to baseline", "format": "ADME, organism-based", "conditions": "in vivo"}, "[3]": {"assay": "Biodistribution in male ICR mouse brain at 0.74 MBq, iv administered into tail vein pre-treated with GSK'547 followed by compound addition by automatic gamma counter analysis relative to baseline", "format": "ADME, organism-based", "conditions": "in vivo"}, "[4]": {"assay": "Biodistribution in male ICR mouse brain at 0.74 MBq, iv administered into tail vein pre-treated with WL8 followed by compound addition by automatic gamma counter analysis relative to baseline", "format": "ADME, organism-based", "conditions": "in vivo"}, "[5]": {"assay": "Biodistribution in male ICR mouse heart at 0.74 MBq, iv administered into tail vein pre-treated with GSK'547 followed by compound addition by automatic gamma counter analysis relative to baseline", "format": "ADME, organism-based", "conditions": "in vivo"}, "[6]": {"assay": "Biodistribution in male ICR mouse heart at 0.74 MBq, iv administered into tail vein pre-treated with WL8 followed by compound addition by automatic gamma counter analysis relative to baseline", "format": "ADME, organism-based", "conditions": "in vivo"}, "[7]": {"assay": "Biodistribution in male ICR mouse liver at 0.74 MBq, iv administered into tail vein pre-treated with GSK'547 followed by compound addition by automatic gamma counter analysis relative to baseline", "format": "ADME, organism-based", "conditions": "in vivo"}, "[8]": {"assay": "Biodistribution in male ICR mouse liver at 0.74 MBq, iv administered into tail vein pre-treated with WL8 followed by compound addition by automatic gamma counter analysis relative to baseline", "format": "ADME, organism-based", "conditions": "in vivo"}, "[9]": {"assay": "Biodistribution in male ICR mouse spleen at 0.74 MBq, iv administered into tail vein pre-treated with GSK'547 followed by compound addition by automatic gamma counter analysis relative to baseline", "format": "ADME, organism-based", "conditions": "in vivo"}, "[10]": {"assay": "Biodistribution in male ICR mouse spleen at 0.74 MBq, iv administered into tail vein pre-treated with WL8 followed by compound addition by automatic gamma counter analysis relative to baseline", "format": "ADME, organism-based", "conditions": "in vivo"}, "[11]": {"assay": "Biodistribution in male ICR mouse lung at 0.74 MBq, iv administered into tail vein pre-treated with GSK'547 followed by compound addition by automatic gamma counter analysis relative to baseline", "format": "ADME, organism-based", "conditions": "in vivo"}, "[12]": {"assay": "Biodistribution in male ICR mouse lung at 0.74 MBq, iv administered into tail vein pre-treated with WL8 followed by compound addition by automatic gamma counter analysis relative to baseline", "format": "ADME, organism-based", "conditions": "in vivo"}, "[13]": {"assay": "Biodistribution in male ICR mouse kidney at 0.74 MBq, iv administered into tail vein pre-treated with GSK'547 followed by compound addition by automatic gamma counter analysis relative to baseline", "format": "ADME, organism-based", "conditions": "in vivo"}, "[14]": {"assay": "Biodistribution in male ICR mouse kidney at 0.74 MBq, iv administered into tail vein pre-treated with WL8 followed by compound addition by automatic gamma counter analysis relative to baseline", "format": "ADME, organism-based", "conditions": "in vivo"}, "[15]": {"assay": "Biodistribution in male ICR mouse pancreas at 0.74 MBq, iv administered into tail vein pre-treated with GSK'547 followed by compound addition by automatic gamma counter analysis relative to baseline", "format": "ADME, organism-based", "conditions": "in vivo"}, "[16]": {"assay": "Biodistribution in male ICR mouse pancreas at 0.74 MBq, iv administered into tail vein pre-treated with WL8 followed by compound addition by automatic gamma counter analysis relative to baseline", "format": "ADME, organism-based", "conditions": "in vivo"}, "[17]": {"assay": "Biodistribution in male ICR mouse muscle tissue at 0.74 MBq, iv administered into tail vein pre-treated with GSK'547 followed by compound addition by automatic gamma counter analysis relative to baseline", "format": "ADME, organism-based", "conditions": "in vivo"}, "[18]": {"assay": "Biodistribution in male ICR mouse muscle tissue at 0.74 MBq, iv administered into tail vein pre-treated with WL8 followed by compound addition by automatic gamma counter analysis relative to baseline", "format": "ADME, organism-based", "conditions": "in vivo"}, "[19]": {"assay": "Biodistribution in male ICR mouse bone at 0.74 MBq, iv administered into tail vein pre-treated with GSK'547 followed by compound addition by automatic gamma counter analysis relative to baseline", "format": "ADME, organism-based, Bone element", "conditions": "in vivo"}, "[20]": {"assay": "Biodistribution in male ICR mouse bone at 0.74 MBq, iv administered into tail vein pre-treated with WL8 followed by compound addition by automatic gamma counter analysis relative to baseline", "format": "ADME, organism-based, Bone element", "conditions": "in vivo"}, "[21]": {"assay": "Biodistribution in male ICR mouse stomach at 0.74 MBq, iv administered into tail vein pre-treated with GSK'547 followed by compound addition by automatic gamma counter analysis relative to baseline", "format": "ADME, organism-based", "conditions": "in vivo"}, "[22]": {"assay": "Biodistribution in male ICR mouse stomach at 0.74 MBq, iv administered into tail vein pre-treated with WL8 followed by compound addition by automatic gamma counter analysis relative to baseline", "format": "ADME, organism-based", "conditions": "in vivo"}, "[23]": {"assay": "Biodistribution in male ICR mouse small intestine 0.74 MBq, iv administered into tail vein pre-treated with GSK'547 followed by compound addition by automatic gamma counter analysis relative to baseline", "format": "ADME, organism-based", "conditions": "in vivo"}, "[24]": {"assay": "Biodistribution in male ICR mouse small intestine at 0.74 MBq, iv administered into tail vein pre-treated with WL8 followed by compound addition by automatic gamma counter analysis relative to baseline", "format": "ADME, organism-based", "conditions": "in vivo"}, "[25]": {"assay": "Biodistribution in male ICR mouse brain at 0.74 MBq, iv administered into tail vein pre-treated with WL8 at 6 mg/kg followed by compound addition by automatic gamma counter analysis", "format": "ADME, organism-based", "conditions": "in vivo"}, "[26]": {"assay": "Biodistribution in male ICR mouse brain at 0.74 MBq, iv administered into tail vein pre-treated with WL8 at 2 mg/kg followed by compound addition by automatic gamma counter analysis", "format": "ADME, organism-based", "conditions": "in vivo"}, "[27]": {"assay": "Biodistribution in male ICR mouse blood at 0.74 MBq, iv administered into tail vein pre-treated with WL8 followed by compound addition by automatic gamma counter analysis", "format": "ADME, organism-based", "conditions": "in vivo"}, "[28]": {"assay": "Biodistribution in male ICR mouse blood at 0.74 MBq, iv administered into tail vein pre-treated with GSK'547 followed by compound addition by automatic gamma counter analysis", "format": "ADME, organism-based", "conditions": "in vivo"}, "[29]": {"assay": "Biodistribution in male ICR mouse bone at 0.74 MBq, iv administered into tail vein pre-treated with GSK'547 followed by compound addition by automatic gamma counter analysis", "format": "ADME, organism-based, Bone element", "conditions": "in vivo"}, "[30]": {"assay": "Biodistribution in male ICR mouse small intestine at 0.74 MBq, iv administered into tail vein pre-treated with GSK'547 followed by compound addition by automatic gamma counter analysis", "format": "ADME, organism-based", "conditions": "in vivo"}, "[31]": {"assay": "Drug degradation in male mouse brain assessed as parent compound remaining at 26.6 MBq by radio-HPLC analysis", "format": "ADME, tissue-based"}, "[32]": {"assay": "Drug degradation in male mouse plasma assessed as parent compound remaining at 26.6 MBq by radio-HPLC analysis", "format": "ADME, cell-free"}, "[33]": {"assay": "Drug degradation in male mouse liver assessed as parent compound remaining at 26.6 MBq by radio-HPLC analysis", "format": "ADME, tissue-based"}}}
{"smiles": "Cc1ccc(C2CC=NN2C(=O)C2CCN(C(=O)c3cccc([18F])n3)CC2)cc1F", "note": "(stereo not drawn)", "values": [{"measurement": "Drug uptake", "setting": "[1]", "value": "Active"}, {"measurement": "Drug uptake", "setting": "[2]", "value": "Active"}, {"measurement": "Drug uptake", "setting": "[3]", "value": "Active"}, {"measurement": "Drug uptake", "setting": "[4]", "value": "Active"}, {"measurement": "Drug uptake", "setting": "[5]", "value": "Active"}, {"measurement": "Drug uptake", "setting": "[6]", "value": "Active"}, {"measurement": "Drug uptake", "setting": "[7]", "value": "Active"}, {"measurement": "Drug uptake", "setting": "[8]", "value": "Active"}, {"measurement": "Drug uptake", "setting": "[9]", "value": "Active"}, {"measurement": "Drug uptake", "setting": "[10]", "value": "Active"}, {"measurement": "Drug uptake", "setting": "[11]", "value": "Active"}, {"measurement": "Drug uptake", "setting": "[12]", "value": "Active"}, {"measurement": "Drug uptake", "setting": "[13]", "value": "Active"}, {"measurement": "Drug uptake", "setting": "[14]", "value": "Active"}, {"measurement": "Drug uptake", "setting": "[15]", "value": "Active"}, {"measurement": "Drug uptake", "setting": "[16]", "value": "Active"}, {"measurement": "Drug uptake", "setting": "[17]", "value": "Active"}, {"measurement": "Drug uptake", "setting": "[18]", "value": "Active"}, {"measurement": "Drug uptake", "setting": "[19]", "value": "Not_active"}, {"measurement": "Drug uptake", "setting": "[20]", "value": "Not_active"}, {"measurement": "Drug uptake", "setting": "[21]", "value": "Active"}, {"measurement": "Drug uptake", "setting": "[22]", "value": "Active"}, {"measurement": "Drug uptake", "setting": "[23]", "value": "Not_active"}, {"measurement": "Drug uptake", "setting": "[24]", "value": "Not_active"}, {"measurement": "Drug uptake", "setting": "[25]", "value": 129, "unit": "%"}, {"measurement": "Drug uptake", "setting": "[26]", "value": 58, "unit": "%"}, {"measurement": "Drug uptake", "setting": "[27]", "value": "> 58", "unit": "%"}, {"measurement": "Drug uptake", "setting": "[28]", "value": "> 58", "unit": "%"}, {"measurement": "Drug uptake", "setting": "[29]", "value": "> 29", "unit": "%"}, {"measurement": "Drug uptake", "setting": "[30]", "value": "> 27", "unit": "%"}, {"measurement": "Stability", "setting": "[31]", "value": 35.2, "unit": "%"}, {"measurement": "Stability", "setting": "[32]", "value": 10.8, "unit": "%"}, {"measurement": "Stability", "setting": "[33]", "value": 13.6, "unit": "%"}]}
